Reference: US6552080B1, “Fungicidal compounds having a fluorovinyl-or fluoropropenyl-oxyphenyloxime moiety and process for the preparation thereof” (Korea Research Institute of Chemical Technology, priority 1999, dated 2003)
Where two headings read alike, the source gives them in different places.

Experiments:
[1] = tested on: Phytophthora infestans; assay type: in vivo; settings: Tomato Late Blight; concentration 50 ppm
[2] = tested on: Puccinia recondita; experiment: Fungicidal activity against Wheat Leaf Rust (WLR) disease; assay type: in vivo; settings: Wheat Leaf Rust
[3] = tested on: Rhizoctonia solani AG-1; experiment: Fungicidal activity against Rice Sheath Blight (RSB) disease; settings: Rice Sheath Blight
[4] = tested on: Botrytis cinerae; experiment: Fungicidal activity against Cucumber Gray Mold Rot (CGM) disease; assay type: in vivo; settings: Cucumber Gray Mold Rot; concentration 50 ppm
[5] = tested on: Pyricularia oryzae Carvara KA301; assay type: in vivo; settings: Rice Blast
[6] = tested on: Erysiphae graminis; experiment: Fungicidal activity against Barley Powdery Mildew (BPM) disease; assay type: in vivo; settings: Barley Powdery Mildew

Compound | TLB (Fungicidal Activities, C.V.) [1] | WLR (Fungicidal Activities, C.V.) ([2]; concentration 2 ppm) | WLR (Fungicidal Activities, C.V.) ([2]; concentration 10 ppm) | WLR (Fungicidal Activities, C.V.) ([2]; concentration 50 ppm) | RSB (Fungicidal Activities, C.V.) ([3]; concentration 2 ppm) | RSB (Fungicidal Activities, C.V.) ([3]; concentration 10 ppm) | RSB (Fungicidal Activities, C.V.) ([3]; concentration 50 ppm) | CGM (Fungicidal Activities, C.V.) [4] | RCV (Fungicidal Activities, C.V.) ([5]; concentration 2 ppm) | RCV (Fungicidal Activities, C.V.) ([5]; concentration 10 ppm) | RCV (Fungicidal Activities, C.V.) ([5]; concentration 50 ppm) | BPM (Fungicidal Activities, C.V.) ([6]; concentration 2 ppm) | BPM (Fungicidal Activities, C.V.) ([6]; concentration 10 ppm) | BPM (Fungicidal Activities, C.V.) ([6]; concentration 50 ppm)
COC=C(C(=O)OC)c1ccccc1CON=C(C)c1cccc(OC(F)=C(c2cccc(C)c2)C(F)(F)F)c1 [Compound 151] | 12% | 86% | 95% | 100% | 35% | 55% | 95% | 24% | 93% | 99% | 100% | 98% | 100% | 100%
COC=C(C(=O)OC)c1ccccc1CON=C(C)c1cccc(OC(F)=C(c2ccc(C)cc2)C(F)(F)F)c1 [Compound 152] | 0% | 86% | 98% | 100% | 45% | 60% | 90% | 44% | 86% | 97% | 100% | 95% | 100% | 100%
COC=C(C(=O)OC)c1ccccc1CON=C(C)c1cccc(OC(F)=C(c2ccc(C)c(C)c2)C(F)(F)F)c1 [Compound 153] | 13% | 91% | 100% | 100% | – | – | 55% | 20% | 0% | 25% | 86% | 83% | 99% | 100%
COC=C(C(=O)OC)c1ccccc1CON=C(C)c1cccc(OC(F)=C(c2cc(C)cc(C)c2)C(F)(F)F)c1 [Compound 154] | 12% | 73% | 96% | 98% | 25% | 35% | 90% | 58% | – | – | 16% | 68% | 98% | 100%
CCc1ccc(C(=C(F)Oc2cccc(C(C)=NOCc3ccccc3C(=COC)C(=O)OC)c2)C(F)(F)F)cc1 [Compound 155] | 6% | 83% | 99% | 100% | – | – | 60% | 52% | – | – | 80% | 95% | 99% | 100%
CCCCc1ccc(C(=C(F)Oc2cccc(C(C)=NOCc3ccccc3C(=COC)C(=O)OC)c2)C(F)(F)F)cc1 [Compound 156] | 0% | – | 95% | 93% | – | – | 20% | 36% | – | – | 33% | – | 91% | 92%
COC=C(C(=O)OC)c1ccccc1CON=C(C)c1cccc(OC(F)=C(c2cccc(OC)c2)C(F)(F)F)c1 [Compound 157] | 6% | 98% | 100% | 100% | – | – | 60% | 68% | 33% | 76% | 93% | 97% | 99% | 100%
COC=C(C(=O)OC)c1ccccc1CON=C(C)c1cccc(OC(F)=C(c2ccc(OC)cc2)C(F)(F)F)c1 [Compound 158] | 0% | 91% | 98% | 100% | – | – | 70% | 44% | – | – | 41% | 98% | 100% | 100%
COC=C(C(=O)OC)c1ccccc1CON=C(C)c1cccc(OC(F)=C(c2cccc(F)c2)C(F)(F)F)c1 [Compound 159] | 20% | 94% | 100% | 100% | – | – | 65% | 52% | 25% | 91% | 96% | 99% | 100% | 100%
